How the values were obtained:
[1] = tested on: Phaseolus vulgaris L. cv. Pinto; test: Bean second and third internode elongation bioassay (glass house); assay type: in vivo; conditions: for % increase compared with control, Total elongation (internode 2 + internode 3) / % increase compared with control, Internode 2 / % increase compared with control, Internode 3: applied through wound site, scored after 10 days; for % increase compared with control, Internode 2 / % increase compared with control, Internode 3: 8 replicates; for elongation of internode 3 (in words) / elongation of internodes by rate (in words): Table 2; for elongation of internode 3 (in words): standard at low concentrations; for elongation of internodes by rate (in words): rates 6, 20 and 200 per plant
Method: Bean seeds of Phaseolus vulgaris L. cv. Pinto were germinated in drench soil in 140 ml pots; pots with 7-day old seedlings were thinned out to one seedling per pot. Young plants of 12-14 days with 2-3 mm long second internodes were used in bioassay screening experiments. Germination, early plant growth as well the screening of growth symptoms of young plants after application of compounds of formula (I) were done under similar glass house conditions: temperature 22° C. day/18° C. night, humidity 60%, day length 15 h day/9 h night. Plants were watered manually on a daily basis, as needed.
Compounds of formula (I) were applied through a wound site using a micropipette. The wound site was introduced through removal of one of the twin leaves of the first set of true leaves. Small amounts of compounds were delivered at a time. The wound site was sealed with […] of Vaseline that was applied using a cotton ear bud. Compounds of formula (I) were dissolved in 99% ethanol and for the control/check a similar volume was used as for all treatments and in this case, the solution only contained 99% ethanol. Dilutions of stock solutions were made with distilled water. Eight replicates were included per treatment, including for the control. The scoring of growth elongation effects was performed after 10 days.
Growth promotion of bean plants by compounds of formula (I) was tested by scoring elongation of the second and third internode of bean plants. Scoring of growth stimulation effects was done by careful cutting and measuring the length of the two internodes. All compounds were tested at three rates (in […] per plant): 6, 20 and 200. Values represent the average percentage increase in stem elongation compared with the untreated control.

maize = test: Field trials on maize at 2 locations in South Africa (Kransfontein, Lindley), spray application at 5-6 leaf growth stage; assay type: in vivo; conditions: for Number of cobs per plot / Plant height 9-10 leaf stage / Plant height 10 leaf stage / Yield / Plant height 6-7 leaf stage / Plant height 9 leaf stage: mean of 6 replicates
Method: Field trials were carried out at 2 locations in South Africa on maize. Treatments as shown in tables 3 and 4 were applied by spray application at 5-6 leaf growth stage. Assessments were made of plant height, number of maize cobs per plot, and total maize yield at the end of the trial. The results in Table 3 and 4 are the mean of 6 replicates per treatment. The standard is an analog of the Formula I of the present invention, as described in WO2009/115060 (formula IV).

SMILES: C[C@]12CCC3[C@@H](CC(F)(F)[C@H]4C[C@H](O)CC[C@]34C)C1CC[C@@H]2O (stereo partly drawn) [Compound P2, 6α,6β-difluoro-3α,17β-diol-5α-androstan]
- % increase compared with control, Total elongation (internode 2 + internode 3) ([1]; 6 μg per plant): 0%
- % increase compared with control, Internode 2 ([1]; 6 μg per plant): 0%
- % increase compared with control, Internode 3 ([1]; 6 μg per plant): 0%
- % increase compared with control, Total elongation (internode 2 + internode 3) ([1]; 20 μg per plant): 160%
- % increase compared with control, Internode 2 ([1]; 20 μg per plant): 50%
- % increase compared with control, Internode 3 ([1]; 20 μg per plant): 110%
- % increase compared with control, Total elongation (internode 2 + internode 3) ([1]; 200 μg per plant): 54%
- % increase compared with control, Internode 2 ([1]; 200 μg per plant): 31%
- % increase compared with control, Internode 3 ([1]; 200 μg per plant): 23%
- elongation of internode 3 (in words) [1]: strong elongation of internode 3
- elongation of internodes by rate (in words) [1]: at the highest two rates, but not at the lowest rate

SMILES: CC(C)[C@@H](C)[C@@H](O)[C@H](O)[C@@H](C)[C@H]1CC[C@H]2[C@@H]3COC(=O)[C@H]4C[C@H](O)[C@H](O)C[C@]4(C)[C@H]3CC[C@]12C [Standard, 24-epi-brassinolide, reference compound]
- % increase compared with control, Total elongation (internode 2 + internode 3) ([1]; 6 μg per plant): 154%
- % increase compared with control, Internode 2 ([1]; 6 μg per plant): 150%
- % increase compared with control, Internode 3 ([1]; 6 μg per plant): 4%
- elongation of internode 3 (in words) [1]: almost no elongation of the third internode
- Number of cobs per plot, % increase compared to untreated control (maize; Kransfontein, 0.3 g AI/ha): −4.3%
- Plant height 9-10 leaf stage, % increase compared to untreated control (maize; Kransfontein, 0.3 g AI/ha): 1.7%
- Plant height 10 leaf stage, % increase compared to untreated control (maize; Kransfontein, 0.3 g AI/ha): 2.1%
- Yield, % increase compared to untreated control (maize; Kransfontein, 0.3 g AI/ha): −2.8%
- Number of cobs per plot (maize; Kransfontein, 0.3 g AI/ha): 33.3
- Plant height 9-10 leaf stage (maize; Kransfontein, 0.3 g AI/ha): 36.3 cm
- Plant height 10 leaf stage (maize; Kransfontein, 0.3 g AI/ha): 48.7 cm
- Yield (maize; Kransfontein, 0.3 g AI/ha): 4017.9 kg/ha
- Number of cobs per plot, % increase compared to untreated control (maize; Kransfontein, 0.6 g AI/ha): −2.9%
- Plant height 9-10 leaf stage, % increase compared to untreated control (maize; Kransfontein, 0.6 g AI/ha): 3.6%
- Plant height 10 leaf stage, % increase compared to untreated control (maize; Kransfontein, 0.6 g AI/ha): 3.4%
- Yield, % increase compared to untreated control (maize; Kransfontein, 0.6 g AI/ha): −3.6%
- Number of cobs per plot (maize; Kransfontein, 0.6 g AI/ha): 33.8
- Plant height 9-10 leaf stage (maize; Kransfontein, 0.6 g AI/ha): 37.0 cm
- Plant height 10 leaf stage (maize; Kransfontein, 0.6 g AI/ha): 49.3 cm
- Yield (maize; Kransfontein, 0.6 g AI/ha): 3985.2 kg/ha
- Number of cobs per plot, % increase compared to untreated control (maize; Lindley, 0.3 g AI/ha): 1.1%
- Plant height 6-7 leaf stage, % increase compared to untreated control (maize; Lindley, 0.3 g AI/ha): 3.4%
- Plant height 9 leaf stage, % increase compared to untreated control (maize; Lindley, 0.3 g AI/ha): 1.6%
- Yield, % increase compared to untreated control (maize; Lindley, 0.3 g AI/ha): 2.0%
- Number of cobs per plot (maize; Lindley, 0.3 g AI/ha): 60.0
- Plant height 6-7 leaf stage (maize; Lindley, 0.3 g AI/ha): 21.5 cm
- Plant height 9 leaf stage (maize; Lindley, 0.3 g AI/ha): 31.0 cm
- Yield (maize; Lindley, 0.3 g AI/ha): 10976.9 kg/ha
- Number of cobs per plot, % increase compared to untreated control (maize; Lindley, 0.6 g AI/ha): 2.5%
- Plant height 6-7 leaf stage, % increase compared to untreated control (maize; Lindley, 0.6 g AI/ha): 1.9%
- Plant height 9 leaf stage, % increase compared to untreated control (maize; Lindley, 0.6 g AI/ha): 2.6%
- Yield, % increase compared to untreated control (maize; Lindley, 0.6 g AI/ha): 1.2%
- Number of cobs per plot (maize; Lindley, 0.6 g AI/ha): 60.8
- Plant height 6-7 leaf stage (maize; Lindley, 0.6 g AI/ha): 21.2 cm
- Plant height 9 leaf stage (maize; Lindley, 0.6 g AI/ha): 31.3 cm
- Yield (maize; Lindley, 0.6 g AI/ha): 10890.5 kg/ha

SMILES: CO[C@]12C[C@H](O)CC[C@]1(C)[C@H]1CC[C@]3(C)[C@@H](O)CC[C@H]3[C@@H]1CC2=O [Compound P3, 5-methoxy-3α,17β-dihydroxyl-5α-androstan-6-one]
- % increase compared with control, Total elongation (internode 2 + internode 3) ([1]; 6 μg per plant): 17%
- % increase compared with control, Internode 2 ([1]; 6 μg per plant): 13%
- % increase compared with control, Internode 3 ([1]; 6 μg per plant): 4%
- % increase compared with control, Total elongation (internode 2 + internode 3) ([1]; 20 μg per plant): 54%
- % increase compared with control, Internode 2 ([1]; 20 μg per plant): 6%
- % increase compared with control, Internode 3 ([1]; 20 μg per plant): 48%
- % increase compared with control, Total elongation (internode 2 + internode 3) ([1]; 200 μg per plant): 113%
- % increase compared with control, Internode 2 ([1]; 200 μg per plant): 43%
- % increase compared with control, Internode 3 ([1]; 200 μg per plant): 70%
- elongation of internode 3 (in words) [1]: strong elongation of internode 3
- elongation of internodes by rate (in words) [1]: elongation of both internodes at all three rates tested
- Number of cobs per plot, % increase compared to untreated control (maize; Kransfontein, 0.3 g AI/ha): 0.5%
- Plant height 9-10 leaf stage, % increase compared to untreated control (maize; Kransfontein, 0.3 g AI/ha): 6.4%
- Plant height 10 leaf stage, % increase compared to untreated control (maize; Kransfontein, 0.3 g AI/ha): 3.8%
- Yield, % increase compared to untreated control (maize; Kransfontein, 0.3 g AI/ha): 1.7%
- Number of cobs per plot (maize; Kransfontein, 0.3 g AI/ha): 35.0
- Plant height 9-10 leaf stage (maize; Kransfontein, 0.3 g AI/ha): 38.0 cm
- Plant height 10 leaf stage (maize; Kransfontein, 0.3 g AI/ha): 49.5 cm
- Yield (maize; Kransfontein, 0.3 g AI/ha): 4203.2 kg/ha
- Number of cobs per plot, % increase compared to untreated control (maize; Kransfontein, 0.6 g AI/ha): 7.7%
- Plant height 9-10 leaf stage, % increase compared to untreated control (maize; Kransfontein, 0.6 g AI/ha): 3.1%
- Plant height 10 leaf stage, % increase compared to untreated control (maize; Kransfontein, 0.6 g AI/ha): 4.2%
- Yield, % increase compared to untreated control (maize; Kransfontein, 0.6 g AI/ha): 2.3%
- Number of cobs per plot (maize; Kransfontein, 0.6 g AI/ha): 37.5
- Plant height 9-10 leaf stage (maize; Kransfontein, 0.6 g AI/ha): 36.8 cm
- Plant height 10 leaf stage (maize; Kransfontein, 0.6 g AI/ha): 49.7 cm
- Yield (maize; Kransfontein, 0.6 g AI/ha): 4227.3 kg/ha
- Number of cobs per plot, % increase compared to untreated control (maize; Lindley, 0.3 g AI/ha): 2.0%
- Plant height 6-7 leaf stage, % increase compared to untreated control (maize; Lindley, 0.3 g AI/ha): 4.8%
- Plant height 9 leaf stage, % increase compared to untreated control (maize; Lindley, 0.3 g AI/ha): 5.9%
- Yield, % increase compared to untreated control (maize; Lindley, 0.3 g AI/ha): 3.3%
- Number of cobs per plot (maize; Lindley, 0.3 g AI/ha): 60.5
- Plant height 6-7 leaf stage (maize; Lindley, 0.3 g AI/ha): 21.8 cm
- Plant height 9 leaf stage (maize; Lindley, 0.3 g AI/ha): 32.3 cm
- Yield (maize; Lindley, 0.3 g AI/ha): 1115.9 kg/ha
- Number of cobs per plot, % increase compared to untreated control (maize; Lindley, 0.6 g AI/ha): 4.5%
- Plant height 6-7 leaf stage, % increase compared to untreated control (maize; Lindley, 0.6 g AI/ha): 3.4%
- Plant height 9 leaf stage, % increase compared to untreated control (maize; Lindley, 0.6 g AI/ha): 8.9%
- Yield, % increase compared to untreated control (maize; Lindley, 0.6 g AI/ha): 3.1%
- Number of cobs per plot (maize; Lindley, 0.6 g AI/ha): 62.0
- Plant height 6-7 leaf stage (maize; Lindley, 0.6 g AI/ha): 21.5 cm
- Plant height 9 leaf stage (maize; Lindley, 0.6 g AI/ha): 33.2 cm
- Yield (maize; Lindley, 0.6 g AI/ha): 11099.4 kg/ha

SMILES: C[C@]12CCC3[C@@H](CC(F)(F)[C@@]4(F)C[C@H](O)CC[C@]34C)C1CC[C@@H]2O (stereo partly drawn) [Compound P1, 5-Fluoro-6α,6β-difluoro-3α,17β-dihydroxy-5α-androstan]
- % increase compared with control, Total elongation (internode 2 + internode 3) ([1]; 6 μg per plant): 0%
- % increase compared with control, Internode 2 ([1]; 6 μg per plant): 0%
- % increase compared with control, Internode 3 ([1]; 6 μg per plant): 0%
- % increase compared with control, Total elongation (internode 2 + internode 3) ([1]; 20 μg per plant): 160%
- % increase compared with control, Internode 2 ([1]; 20 μg per plant): 44%
- % increase compared with control, Internode 3 ([1]; 20 μg per plant): 116%
- % increase compared with control, Total elongation (internode 2 + internode 3) ([1]; 200 μg per plant): 108%
- % increase compared with control, Internode 2 ([1]; 200 μg per plant): 30%
- % increase compared with control, Internode 3 ([1]; 200 μg per plant): 78%
- elongation of internode 3 (in words) [1]: strong elongation of internode 3
- elongation of internodes by rate (in words) [1]: at the highest two rates, but not at the lowest rate
